“Also recorded” adds a separate entry of the source.
How the values were obtained:
BRAF = BRAF knockdown in melanoma cell clones (immunoblot densitometry, quantitative PCR); type: cell-based, human; details: melanoma cell clones expressing inducible BRAF shRNA
Description: FIG. 10: Inducible knockdown of BRAF expression prevents melanoma tumor growth. (A). Schematic representation of a retroviral vector for tetracycline/doxycycline-inducible synthesis of shRNA. The Tet-repressor is constitutively expressed from the β-actin promoter and H1 RNA polymerase III promoter-driven transcription is thereby repressed in the absence of Dox by binding of the TetR protein to the Tet-responsive element sequence located immediately downstream of the TATA box. Addition of Dox results in dissociation of the TetR protein and derepression of the shRNA transcriptional unit. TATA, TATA box; TRE, Tet-responsive element; TetR, Tet-repressor protein; IRES, internal ribosomal entry site; PURO, puromycin resistance gene; LTR, long terminal repeat. B. Experimental validation of BRAF knockdown in melanoma cell lines. […] Lysates were then analyzed by immunoblotting. […]
We generated stable cells that expressed the inducible shRNA retroviral vector shown in FIG. 10A (based on pHUSH-GW). […] In the uninduced state, cells expressing the inducible hairpins were not altered in their baseline growth properties and no discernable background expression could be detected (data not shown). […] BRAF knockdown was reversible and time-dependent, with the maximal mRNA depletion detected 2 days post induction and the corresponding protein depletion occurring at day 3.

LOX-IMVI tumors = assay: LOX-IMVI inducible shRNA subcutaneous xenograft; type: in vivo; details: for tumor growth: 2 mg/ml Dox plus 5% sucrose in drinking water, start at 100-150 mm^3
Experimental: (§1) Six- to 8-week-old female athymic nu/nu mice or scid-beige mice were purchased from Charles River Laboratories. To assay for BRAF role in subcutaneous tumor models, mice were injected in the right flank with either 3×10^6 human LOX-IMVI or 1×10^7 human A375 TASK121-shRNA containing cell clones in 200 μL phosphate-buffered saline (PBS). When tumors reached a mean volume of 100-150 mm^3 the mice with similarly sized tumors were grouped into treatment cohorts. Mice received 5% sucrose only or 5% sucrose plus 1-2 mg/ml doxycycline for control and knockdown cohorts, respectively. All water bottles were changed 3 times per week. Tumors were measured with calipers and mice weighed twice per week. Mice whose tumors reach 2000 mm^3 were euthanized. At the end of the dosing study, or as indicated, appropriate tumor samples were taken. Each treatment group consisted of 7-10 mice and results are presented as mean tumor volume ±standard deviation (FIGS. 10C-E).

[1] = test system: A375M-luc/shRNA-BRAF cells; assay: A375M-luc systemic (metastatic) tumor model, survival and bioluminescence; type: in vivo, scid-beige mice; details: 1 mg/ml Dox in drinking water (Dox-mediated BRAF knockdown); i.v. 4×10^5 A375M-luc/shRNA-BRAF cells
Experimental: To evaluate the efficacy of TASK121 knockdown in this model, cohorts of mice with similarly increasing tumor burden were divided into treatment groups. Scid-beige mice were injected intraperitoneally with […] 200 mg/kg D-luciferin (Biotium, Hayward, Calif.) and anesthetized using isoflurane. During image acquisition in a light-tight box, the animal was maintained on isoflurane via nose cone, and body temperature was maintained using a warming pad. Bioluminescence images were acquired using a cooled intensified charge-coupled device camera in an in vivo imaging system (Xenogen, Alameda, Calif.). Image acquisition times were about 1 minute. Images were processed by co-registering a reference image with a thresholded bioluminescence data image.
For metastatic tumor models, female scid-beige mice were injected intravenously with 50 μL PBS containing 4×10^5 A375M-luc shRNA cell clones. Tumor progression was monitored by weekly bioluminescence imaging for luciferase and mice were monitored daily for survival. At least 9 mice were used for each cohort. […] This is a promising strategy to inhibit certain metastatic tumors.

tumor = details: Teicher et al. 2002; cited from earlier work
[2] = test system: pHUSH shGL3 clone B11 tumors; assay: Tumor volume of pHUSH shGL3 clone B11 tumors at each Dox concentration; type: in vivo, mice; details: luciferase-targeting shRNA
Experimental: FIG. 6: (A) The relative change in mean bioluminescence at each time point and treatment condition (n=5 mice per doxycycline dose). […] In addition to the luciferase expression analysis, tumor volume measurements were recorded for the pHUSH shGL3 clone B11 at each concentration of doxycycline.
To determine whether Dox or shRNA expression influenced tumor growth in vivo, tumor volume measurements were recorded for the tumors at each concentration of Dox.

A375 tumors = assay: A375 inducible shRNA subcutaneous xenograft; type: in vivo, athymic nu/nu mice; details: 2 mg/ml Dox in drinking water
Experimental: as §1

[3] = test system: pGL3-mu-p53 (murine p53 sequences); assay: Luciferase-based transient co-transfection comparing shRNA and miRNA vectors against p53; type: cell-based; details: p53-1 sequence, higher transfection ratios
Description: FIG. 15: Luciferase-based transient co-transfection experiments compared shRNA and miRNA inducible expression vector performance. A. Comparison of H1-shRNA and CMV-miR vectors corresponding to murine p53 sequences transfected at 7.5:1, 5:1 and 2.5:1 shRNA:pGL3-mu-p53. B. The removal of the EmGFP leader rendered miR-p53-1 non-functional at a co-transfection ratio of 10:1.
In order to compare the efficacy of shRNA versus miRNA design, two effective miRNAs directed against p53 were converted to H1-shRNAs by identifying the 21-22 nt active siRNA within the miRNA scaffold and then by converting these active siRNAs back to N19 shRNAs. In addition, we examined the effect of having a linker sequence upstream of the miRNA. The following oligonucleotides were used in this study: […]

TetR protein = assay: Western analysis of TetR protein expression in transiently transfected 293T cells; type: cell-based; details: transient transfection, compared to wildtype TetR coding sequence
Experimental: To confirm that codon optimization of the TetR coding region increased expression of the TetR protein, Western analysis was performed. Briefly, plasmids containing the retroviral backbone comprising either wild type TetR (WT) or the codon optimized TetR (OPT) were transiently transfected into 293T cells using lipofectin (commercially available from GIBCO-BRL, Gaithersburg, Md.). Cell lysates were prepared by addition of 50 mM HEPES pH 7.4, 100 mM NaCl, 50 mM NaF, 5 mM B-glycerophosphate, 2 mM EGTA, 1 mM Na vanadate, 1% TX100 to a cell pellet, resolved on a 4-12% acrylamide gel and transferred to a PVDF membrane. Membranes were sequentially probed with Mouse α-TetR (1:5000; MolBiTec) and Rabbit α-Tubulin-HRP (1:5000, Santa Cruz Biotech, Santa Cruz, Calif.). […] “Ev” signifies negative control using retroviral vector lacking a shRNA cassette.

Molecule: C[C@H]1c2cccc(O)c2C(=O)C2=C(O)[C@]3(O)C(=O)C(C(N)=O)=C(O)[C@@H](N(C)C)[C@@H]3[C@@H](O)[C@@H]21 [Dox, 1-dimethylamino-2,4-a,5,7,12-pentahydroxy-11-methyl-4,6-dioxo-1,4a,11,11a,12,12a-hexahydrotetracene-3-carboxamide]
- Dox IC50 for suppression of BRAF protein levels (BRAF): approximately 5 ng/ml
- body weight between treatment groups (LOX-IMVI tumors; 2 mg/ml Dox plus 5% sucrose vs 5% sucrose): no difference in body weight
- lethality or weight loss (LOX-IMVI tumors; 2 mg/ml Dox via drinking water, LOX-IMVI and A375 xenograft experiments): No lethality or weight loss was observed
- lower threshold for in vivo expression of the shRNA (LOX-IMVI tumors; pHUSH vector system, drinking water): ~0.02 mg/mL
- median survival [1]: 33.4 days

Molecule: Cl.Cn1cc(C2=C(c3cn(C4CCN(Cc5ccccn5)CC4)c4ccccc34)C(=O)NC2=O)c2ccccc21 [317615-HCL]
- anti-tumor effect (tumor): anti-tumor effect

B1: Luciferase control shRNA: shRNA targeting the luciferase coding region (SEQ ID NO:9 / 15) in pHUSH (nucleic acid)
sense: GATCCCCCTTACGCTGAGTACTTCGATTCAAGAGATCGAAGTACTCAGCGTAAGTTTTTTGGAAA
antisense: AGCTTTTCCAAAAAACTTACGCTGAGTACTTCGATCTCTTGAATCGAAGTACTCAGCGTAAGGGG
- influence on tumor growth in vivo (tumor volume) [2]: does not influence tumor growth in vivo
- tumor growth (LOX-IMVI tumors): did not affect tumor growth kinetics
- tumor growth (LOX-IMVI tumors; listed as control shRNA directed against Luciferase): continued to increase in size

B2: GFP control shRNA: EGFP shRNA (SEQ ID NO:17/18) control hairpin in pHUSH (nucleic acid)
sense: GATCCCCAGATCCGCCACAACATCGATTCAAGAGATCGATGTTGTGGCGGATCTTGTTTTTTGGAAA
antisense: AGCTTTTCCAAAAAACAAGATCCGCCACAACATCGATCTCTTGAATCGATGTTGTGGCGGATCTGGG
- tumor growth (A375 tumors): no discernable effect on tumor growth; also recorded: did not affect tumor growth kinetics

B3: H1-shRNA-p53-1: H1 promoter N19 shRNA converted from the p53-1 miRNA (nucleic acid)
DNA: GATCCCCAGTACGTGCACATAACAGACTTTCAAGAGAAGTCTGTTGTGCACGTACTTTTTTTGGAAA
- knockdown compared to CMV-miR [3]: slight increase in knockdown

B4: codon optimized TetR: TetR coding region codon optimized for mammalian expression (SEQ ID NO:1) (nucleic acid)
DNA: ATGTCCAGACTGGATAAGTCCAAGGTGATTAATTCCGCTCTGGAACTCCTGAACGAGGTCGGCATCGAGGGACTGACCACACGGAAGCTGGCTCAGAAACTCGGCGTCGAACAGCCTACCCTCTACTGGCATGTCAAAAATAAGAGAGCCCTCCTGGACGCCCTGGCTATCGAGATGCTGGACAGACACCACACCCACTTCTGCCCCCTGGAAGGCGAATCCTGGCAGGATTTCCTCCGGAACAACGCTAAAAGCTTTAGATGCGCCCTCCTCAGCCATAGAGACGGAGCTAAAGTGCACCTGGGAACCCGGCCTACAGAAAAACAGTACGAGACACTGGAAAACCAGCTCGCTTTCCTCTGCCAACAAGGCTTTAGCCTGGAAAACGCCCTCTACGCTCTCAGCGCTGTCGGCCATTTTACACTGGGCTGCGTGCTCGAGGACCAGGAGCACCAAGTGGCTAAAGAGAGCGGGAAACCCCTACCACCGATAGCATGCCCCCCCTGCTGAGACAAGCCATTGAGCTCTTTGATCATCAGGGAGCTGAACCCGCCTTCCTCTTTGGACTCGAACTCATTATTTGCGGACTCGAGAAGCAACTGAAATGCGAAAGCGGAAGCGCCTACTCCGGCTCCAGAGAATTTCGGTCCTACTAG
modifications: Codon-optomized TetR
- expression of the TetR protein (TetR protein): significantly increased expression of the TetR protein
